Assay results reported in patent US8455023B2, “Composition for inhibiting melanogenesis and use thereof” (Kaohsiung Medical University, priority 2010, dated 2013).
Where two headings read alike, the source gives them in different places.

Legend:
Format in all cases: cell-based
[1] = system: Neonatal foreskin primary human epidermal melanocytes (HEMn-MP); assay: Toxicity assay (MTS) in human melanocytes
Method: Neonatal foreskin primary human epidermal melanocytes (HEMn-MP) was purchased from Cascade Biologics™, and cultured in 254 medium (Cascade Biologics™) with human melanocyte growth supplement (HMGS, cat. #S-002-5). Cells were maintained at 37° C. humid environment (5% CO2). Neonatal foreskin primary human epidermal melanocytes (HEMn-MP) were cultured in 24-Well plates at seeding density of 10^5 cells/well.
MTS assay (Mosmann T, Rapid colorimetric assay for cellular growth and survival: application to proliferation and cytotoxicity assays J Immunol Methods 1983 16; 65(1-2):55-63) was used for cell toxicity assay. […] The stimulation of MSH to melanin synthesis was used as a reference for comparison of compound (I) and (II). Control group value was set as 100% which obtained from 3 independent experiments.

[2] = system: Neonatal foreskin primary human epidermal melanocytes (HEMn-MP); assay: Melanin quantitation analysis in HEMn-MP cells; settings: for Cell melanin content (in words): FIG. 2C; for Percentage of cellular melanin concentration (%): control = 100%
Method: Lin's method was used to quantify melanin (Lin et al., Constituents from the Formosan apple reduce tyrosinase activity in human epidermal melanocytes 2007 Phytochemistry Volume 68, Issue 8, Pages 1189-1199). Cells were resuspend in 1N NaOH and dimethyl sulfoxide (DSMO), heated at 80° C. for 1 hour, centrifuged for 10 min at 10,000 rpm, and measured OD 405 nm value of supernatant. As shown in Table 3 and FIG. 2C, the control group value was set as 100%. All results obtained from 3 independent experiments.

tyrosinase = target: T1, tyrosinase (Homo sapiens, UniProt P14679); assay: Tyrosinase activity assay (dopachrome biosynthesis rate, lysate of treated HEMn-MP cells); settings: for Tyrosinase activity (in words): FIG. 2B; for Tyrosinase activity percentage (%): 3 days, control = 100%
T1 construct: endogenous in cells; host or cells: HEMn-MP human epidermal melanocytes (lysate in 1% Triton X-100/PBS)
T1 sequence (P14679 19-529): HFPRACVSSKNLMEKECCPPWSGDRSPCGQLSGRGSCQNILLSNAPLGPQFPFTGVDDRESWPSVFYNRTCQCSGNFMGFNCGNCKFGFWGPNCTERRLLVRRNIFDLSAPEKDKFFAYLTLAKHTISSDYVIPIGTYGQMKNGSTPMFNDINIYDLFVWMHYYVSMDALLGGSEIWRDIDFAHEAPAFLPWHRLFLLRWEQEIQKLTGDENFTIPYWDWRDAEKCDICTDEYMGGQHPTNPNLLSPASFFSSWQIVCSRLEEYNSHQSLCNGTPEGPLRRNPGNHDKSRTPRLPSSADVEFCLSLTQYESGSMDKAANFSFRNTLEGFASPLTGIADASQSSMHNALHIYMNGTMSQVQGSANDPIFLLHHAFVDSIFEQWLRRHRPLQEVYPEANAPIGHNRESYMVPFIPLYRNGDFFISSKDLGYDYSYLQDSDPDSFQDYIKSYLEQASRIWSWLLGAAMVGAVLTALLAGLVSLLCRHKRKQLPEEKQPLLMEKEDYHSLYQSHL
Method: Cultured cells were rinsed with […] resuspend in 1% Triton X-100/PBS. Cell lysate was harvested. L-Dopa and L-tyrosine 10 μl (10 mM in 0.1M PBS, pH 6.8) were added and incubated at 37° C. for 3 hours. After reaction, the OD 490 nm value was measured.

[3] = system: Neonatal foreskin primary human epidermal melanocytes (HEMn-MP); assay: Microscopic appearance of HEMn-MP cells (FIG. 3); settings: high concentrations; 200× bright field; FIGS. 3E and 3J
Text: Microscopic images were taken under 200× magnification bright field view. The arrow head indicates bipolar appearance of neonatal foreskin primary human epidermal melanocyte (HEMn-MP).
Under 200× bright field microscope, the control group and low concentration compound (I) and (II) treated cells (FIGS. 3A, 3H, 3I, 3M and 3N) were lined up tightly showing bipolar appearance.

[4] = reference, concentration 100 μM

Tyrosinase activity percentage (%) (tyrosinase; 0.01 μM) | Tyrosinase activity percentage (%) (tyrosinase; 0.1 μM (MSH concentration)) | Tyrosinase activity percentage (%) (tyrosinase; 1 μM) | Tyrosinase activity percentage (%) (tyrosinase; 5 μM) | Tyrosinase activity percentage (%) (tyrosinase; 10 μM) | SMILES | Cell activity (in words) [1] | Cell melanin content (in words) [2] | Percentage of cellular melanin concentration (%) [2, 4] [%] | Tyrosinase activity (in words) (tyrosinase) | Cell activity percentage (%) ([1]; human, 0.01 μM) | Cell activity percentage (%) ([1]; human, 0.1 μM) | Cell activity percentage (%) ([1]; human, 1 μM) | Cell activity percentage (%) ([1]; human, 5 μM) | Cell activity percentage (%) ([1]; human, 10 μM) | Percentage of cellular melanin concentration (%) ([2]; 0.01 μM) | Percentage of cellular melanin concentration (%) ([2]; 0.1 μM (MSH concentration)) | Percentage of cellular melanin concentration (%) ([2]; 1 μM) | Percentage of cellular melanin concentration (%) ([2]; 5 μM) | Percentage of cellular melanin concentration (%) ([2]; 10 μM) | Cell appearance under microscope [3] | also measured
– | – | – | – | – | O=c1cc(CO)occ1O [Kojic acid, reference compound] | less effects on cell activity | reduced melanin content | 66.34 | – | – | – | – | – | – | – | – | – | – | – | – | Cell activity percentage (%) ([1]; human, 100 μM): 72.87%
– | – | – | – | – | NC(=S)Nc1ccccc1 [N-phenylthiourea, reference compound] | – | reduced melanin content | 77.56 | less effective to tyrosinase activity | – | – | – | – | – | – | – | – | – | – | – | Cell activity percentage (%) ([1]; 100 μM, MTS, control = 100%): 79.07%; Cell activity (in words) ([1]; FIG. 2A): less effects on cell activity; Tyrosinase activity percentage (%) (tyrosinase; [4]): 71.07%
78.62 | 74.21 | 44.03 | 7.369 | 7.275 | CCCCCCCCCCCCC/C=C1\C(=O)O[C@@](C)(OC)[C@@H]1O [Subamolide A, subamolide A] | reduced along with higher concentrations | cell melanin content decreased | – | reduced along with elevated concentrations | 93.41 | 85.66 | 73.91 | 54.69 | 44.91 | 84.11 | 76.85 | 66.1 | 25.12 | 20.2439 | partial toxicity to cells | –
84.15 | 72.96 | 45.91 | 18.04 | 14.59 | C=C1OC(=O)/C(=C\CCCCCCCCCCCCC)[C@H]1O [Linderanolide B, linderanolide B] | reduced along with higher concentrations | cell melanin content decreased | – | reduced along with elevated concentrations | 94.19 | 87.52 | 83 | 62.41 | 54.26 | 89.63 | 78.63 | 67.56 | 28.93 | 24.39 | partial toxicity to cells | –
